Measured values as given in ChEMBL document CHEMBL4507265 (2021).

Columns and labels:
[1] = molecular target: Sigma intracellular receptor 2 (Homo sapiens, UniProt Q5BJF2); assay: GPCRScan assay: inhibition of Sigma 2; parameters: radioligand conc. used [nm] 5.0, parental cells HEKT
[2] = molecular target: Tyrosine-protein kinase ABL1 (Homo sapiens) (UniProt P00519); settings: Compound concentration 1000.0 nM
[3] = molecular target: Mitogen-activated protein kinase kinase kinase 5 (Homo sapiens) (UniProt Q99683); settings: Compound concentration 1000.0 nM
[4] = molecular target: Calcium/calmodulin-dependent protein kinase type II subunit beta (Homo sapiens) (UniProt Q13554); settings: Compound concentration 1000.0 nM
[5] = molecular target: Cyclin-dependent kinase-like 3 (Homo sapiens) (UniProt Q8IVW4); settings: Compound concentration 1000.0 nM
[6] = molecular target: Ephrin type-B receptor 3 (Homo sapiens) (UniProt P54753); settings: Compound concentration 1000.0 nM
[7] = molecular target: Receptor tyrosine-protein kinase erbB-4 (Homo sapiens) (UniProt Q15303); settings: Compound concentration 1000.0 nM
[8] = molecular target: Rhodopsin kinase GRK1 (Homo sapiens) (UniProt Q15835); settings: Compound concentration 1000.0 nM
[9] = molecular target: Homeodomain-interacting protein kinase 4 (Homo sapiens) (UniProt Q8NE63); settings: Compound concentration 1000.0 nM
[10] = molecular target: Mast/stem cell growth factor receptor Kit (Homo sapiens) (UniProt P10721); settings: Compound concentration 1000.0 nM
[11] = molecular target: Serine/threonine-protein kinase LATS2 (Homo sapiens) (UniProt Q9NRM7); settings: Compound concentration 1000.0 nM
[12] = tested on: Leucine-rich repeat serine/threonine-protein kinase 2 (Homo sapiens), Q5S007 [G2019S]; settings: Compound concentration 1000.0 nM
[13] = molecular target: Tyrosine-protein kinase Lyn (Homo sapiens) (UniProt P07948); settings: Compound concentration 1000.0 nM
[14] = molecular target: MAP/microtubule affinity-regulating kinase 3 (Homo sapiens) (UniProt P27448); settings: Compound concentration 1000.0 nM
[15] = molecular target: Dual specificity mitogen-activated protein kinase kinase 1 (Homo sapiens) (UniProt Q02750); settings: Compound concentration 1000.0 nM
[16] = molecular target: Dual specificity mitogen-activated protein kinase kinase 5 (Homo sapiens) (UniProt Q13163); settings: Compound concentration 1000.0 nM
[17] = molecular target: Muscle, skeletal receptor tyrosine-protein kinase (Homo sapiens) (UniProt O15146); settings: Compound concentration 1000.0 nM
[18] = molecular target: Myosin light chain kinase, smooth muscle (Homo sapiens) (UniProt Q15746); settings: Compound concentration 1000.0 nM
[19] = molecular target: Myosin-IIIb (Homo sapiens) (UniProt Q8WXR4); settings: Compound concentration 1000.0 nM
[20] = molecular target: Serine/threonine-protein kinase Nek4 (Homo sapiens) (UniProt P51957); settings: Compound concentration 1000.0 nM
[21] = molecular target: Serine/threonine-protein kinase Nek7 (Homo sapiens) (UniProt Q8TDX7); settings: Compound concentration 1000.0 nM
[22] = molecular target: Mitogen-activated protein kinase 13 (Homo sapiens) (UniProt O15264); settings: Compound concentration 1000.0 nM
[23] = molecular target: Mitogen-activated protein kinase 12 (Homo sapiens) (UniProt P53778); settings: Compound concentration 1000.0 nM
[24] = molecular target: Cyclin-dependent kinase 2 homolog (Plasmodium falciparum (isolate 3D7)) (UniProt P61075); settings: Compound concentration 1000.0 nM
[25] = tested on: Phosphatidylinositol 4,5-bisphosphate 3-kinase catalytic subunit alpha isoform (Homo sapiens), P42336 [M1043I]; settings: Compound concentration 1000.0 nM
[26] = molecular target: Serine/threonine-protein kinase pim-1 (Homo sapiens) (UniProt P11309); settings: Compound concentration 1000.0 nM
[27] = molecular target: Phosphatidylinositol 4-phosphate 5-kinase type-1 alpha (Homo sapiens) (UniProt Q99755); settings: Compound concentration 1000.0 nM
[28] = molecular target: Protein kinase C eta type (Homo sapiens) (UniProt P24723); settings: Compound concentration 1000.0 nM
[29] = molecular target: Interferon-induced, double-stranded RNA-activated protein kinase (Homo sapiens) (UniProt P19525); settings: Compound concentration 1000.0 nM
[30] = molecular target: Receptor-interacting serine/threonine-protein kinase 1 (Homo sapiens) (UniProt Q13546); settings: Compound concentration 1000.0 nM
[31] = molecular target: Serine/threonine-protein kinase SIK2 (Homo sapiens) (UniProt Q9H0K1); settings: Compound concentration 1000.0 nM
[32] = molecular target: Serine/threonine-protein kinase TAO2 (Homo sapiens) (UniProt Q9UL54); settings: Compound concentration 1000.0 nM
[33] = molecular target: Testis-specific serine/threonine-protein kinase 3 (Homo sapiens) (UniProt Q96PN8); settings: Compound concentration 1000.0 nM
[34] = molecular target: Serine/threonine-protein kinase WNK2 (Homo sapiens) (UniProt Q9Y3S1); settings: Compound concentration 1000.0 nM
[35] = molecular target: 5-hydroxytryptamine receptor 1D (Homo sapiens) (UniProt P28221); settings: Compound concentration 10.0 uM
[36] = molecular target: Muscarinic acetylcholine receptor M3 (Homo sapiens) (UniProt P20309); settings: Compound concentration 10.0 uM
[37] = molecular target: T1, Alpha-1D adrenergic receptor (Homo sapiens) (UniProt P25100); settings: Compound concentration 10.0 uM
T1 sequence (whole entry): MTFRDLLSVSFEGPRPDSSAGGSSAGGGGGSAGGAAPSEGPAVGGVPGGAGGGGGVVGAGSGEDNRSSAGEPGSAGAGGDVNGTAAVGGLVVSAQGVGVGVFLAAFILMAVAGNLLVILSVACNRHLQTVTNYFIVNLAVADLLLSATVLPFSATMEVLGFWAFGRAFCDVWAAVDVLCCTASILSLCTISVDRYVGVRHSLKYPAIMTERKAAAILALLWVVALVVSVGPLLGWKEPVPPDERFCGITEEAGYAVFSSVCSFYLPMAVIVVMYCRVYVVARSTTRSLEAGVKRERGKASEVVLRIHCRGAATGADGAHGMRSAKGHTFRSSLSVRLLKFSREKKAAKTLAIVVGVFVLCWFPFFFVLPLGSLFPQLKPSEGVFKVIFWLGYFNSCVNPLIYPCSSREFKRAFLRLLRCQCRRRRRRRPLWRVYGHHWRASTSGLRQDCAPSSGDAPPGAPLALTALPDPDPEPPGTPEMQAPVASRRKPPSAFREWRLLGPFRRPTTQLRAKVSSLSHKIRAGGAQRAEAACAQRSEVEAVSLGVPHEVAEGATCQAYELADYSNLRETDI

Chain of Sigma intracellular receptor 2 (Q5BJF2 whole entry): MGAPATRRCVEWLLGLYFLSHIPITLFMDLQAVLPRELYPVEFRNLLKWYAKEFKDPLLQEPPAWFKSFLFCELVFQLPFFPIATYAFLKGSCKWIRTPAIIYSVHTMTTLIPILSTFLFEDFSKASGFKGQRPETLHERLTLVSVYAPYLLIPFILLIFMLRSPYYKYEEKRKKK
Chain of Phosphatidylinositol 4,5-bisphosphate 3-kinase catalytic subunit alpha isoform (Homo sapiens), P42336 [M1043I] (P42336 whole entry M1043I, canonical isoform): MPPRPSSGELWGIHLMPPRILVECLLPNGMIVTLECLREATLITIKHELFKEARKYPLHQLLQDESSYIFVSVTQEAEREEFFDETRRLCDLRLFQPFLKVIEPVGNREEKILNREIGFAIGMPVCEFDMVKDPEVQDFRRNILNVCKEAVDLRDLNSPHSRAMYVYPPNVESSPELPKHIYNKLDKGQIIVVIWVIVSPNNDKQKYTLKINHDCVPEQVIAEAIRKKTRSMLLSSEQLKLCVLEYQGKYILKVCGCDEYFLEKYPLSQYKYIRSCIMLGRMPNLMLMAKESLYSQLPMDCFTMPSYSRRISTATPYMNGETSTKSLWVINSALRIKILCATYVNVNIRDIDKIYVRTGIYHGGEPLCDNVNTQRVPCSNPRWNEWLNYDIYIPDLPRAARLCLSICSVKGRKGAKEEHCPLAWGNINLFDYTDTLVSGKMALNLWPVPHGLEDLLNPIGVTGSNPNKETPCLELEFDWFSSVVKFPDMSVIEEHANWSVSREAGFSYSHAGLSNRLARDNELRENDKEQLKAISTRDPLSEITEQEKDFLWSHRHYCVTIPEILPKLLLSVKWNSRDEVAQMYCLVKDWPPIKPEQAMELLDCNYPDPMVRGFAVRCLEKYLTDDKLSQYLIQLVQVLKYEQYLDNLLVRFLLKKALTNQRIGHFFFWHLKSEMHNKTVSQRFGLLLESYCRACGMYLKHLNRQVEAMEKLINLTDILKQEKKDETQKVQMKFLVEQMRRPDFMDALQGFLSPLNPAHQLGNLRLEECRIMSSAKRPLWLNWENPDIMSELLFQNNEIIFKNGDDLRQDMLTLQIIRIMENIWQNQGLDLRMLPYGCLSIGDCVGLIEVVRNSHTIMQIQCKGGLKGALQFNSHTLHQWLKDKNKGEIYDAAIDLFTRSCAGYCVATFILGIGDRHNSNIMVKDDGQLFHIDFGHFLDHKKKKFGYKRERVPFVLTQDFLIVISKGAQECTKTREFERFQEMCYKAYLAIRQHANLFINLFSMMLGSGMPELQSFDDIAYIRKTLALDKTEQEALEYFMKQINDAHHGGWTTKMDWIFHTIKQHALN
Chain of Dual specificity mitogen-activated protein kinase kinase 1 (Homo sapiens) (Q02750 whole entry): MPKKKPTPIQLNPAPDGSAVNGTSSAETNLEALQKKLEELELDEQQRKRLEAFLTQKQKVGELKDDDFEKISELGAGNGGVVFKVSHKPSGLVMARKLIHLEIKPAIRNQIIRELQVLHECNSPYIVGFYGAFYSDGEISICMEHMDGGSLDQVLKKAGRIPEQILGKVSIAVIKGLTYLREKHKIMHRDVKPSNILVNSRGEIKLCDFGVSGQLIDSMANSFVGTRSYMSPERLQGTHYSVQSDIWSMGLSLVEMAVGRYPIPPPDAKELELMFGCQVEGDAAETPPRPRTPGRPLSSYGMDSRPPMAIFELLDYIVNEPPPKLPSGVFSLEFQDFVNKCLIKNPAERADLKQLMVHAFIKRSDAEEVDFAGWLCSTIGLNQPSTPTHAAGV
Chain of Mitogen-activated protein kinase kinase kinase 5 (Homo sapiens) (Q99683 whole entry): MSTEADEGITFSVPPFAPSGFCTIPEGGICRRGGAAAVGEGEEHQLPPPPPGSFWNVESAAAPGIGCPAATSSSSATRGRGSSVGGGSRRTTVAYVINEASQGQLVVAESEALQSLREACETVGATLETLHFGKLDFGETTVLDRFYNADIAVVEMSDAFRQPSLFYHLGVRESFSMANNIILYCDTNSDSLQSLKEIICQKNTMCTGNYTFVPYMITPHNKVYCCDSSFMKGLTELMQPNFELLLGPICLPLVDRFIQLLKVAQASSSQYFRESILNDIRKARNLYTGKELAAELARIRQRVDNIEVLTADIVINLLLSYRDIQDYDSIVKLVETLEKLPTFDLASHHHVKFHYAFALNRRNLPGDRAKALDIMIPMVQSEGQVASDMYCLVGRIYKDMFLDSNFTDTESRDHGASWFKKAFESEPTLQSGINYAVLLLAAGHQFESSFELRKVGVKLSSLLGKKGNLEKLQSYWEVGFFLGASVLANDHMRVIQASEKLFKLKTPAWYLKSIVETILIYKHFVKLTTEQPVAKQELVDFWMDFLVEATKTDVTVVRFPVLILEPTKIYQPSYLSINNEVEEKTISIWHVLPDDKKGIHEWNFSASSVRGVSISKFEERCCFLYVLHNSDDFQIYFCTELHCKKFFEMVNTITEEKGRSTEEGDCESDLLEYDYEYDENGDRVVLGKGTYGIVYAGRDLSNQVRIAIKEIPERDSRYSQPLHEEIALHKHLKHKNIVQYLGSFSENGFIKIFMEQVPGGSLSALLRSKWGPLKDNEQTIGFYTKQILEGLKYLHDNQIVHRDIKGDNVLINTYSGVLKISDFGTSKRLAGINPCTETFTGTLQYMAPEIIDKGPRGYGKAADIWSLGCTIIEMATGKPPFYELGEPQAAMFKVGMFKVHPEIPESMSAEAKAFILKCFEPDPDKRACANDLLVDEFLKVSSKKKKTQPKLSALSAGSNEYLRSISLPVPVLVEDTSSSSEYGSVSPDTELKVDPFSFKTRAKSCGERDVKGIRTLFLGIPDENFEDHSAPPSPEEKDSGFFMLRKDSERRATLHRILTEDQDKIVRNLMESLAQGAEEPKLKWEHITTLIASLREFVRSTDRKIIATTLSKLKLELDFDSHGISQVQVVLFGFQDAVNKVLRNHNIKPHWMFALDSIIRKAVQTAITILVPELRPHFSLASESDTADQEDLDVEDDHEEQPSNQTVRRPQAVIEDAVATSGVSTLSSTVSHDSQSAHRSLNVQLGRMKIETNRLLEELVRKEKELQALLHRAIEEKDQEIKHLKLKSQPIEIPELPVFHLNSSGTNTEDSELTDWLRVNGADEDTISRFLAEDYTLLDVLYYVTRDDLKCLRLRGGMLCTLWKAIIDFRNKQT
Chain of Testis-specific serine/threonine-protein kinase 3 (Homo sapiens) (Q96PN8 whole entry): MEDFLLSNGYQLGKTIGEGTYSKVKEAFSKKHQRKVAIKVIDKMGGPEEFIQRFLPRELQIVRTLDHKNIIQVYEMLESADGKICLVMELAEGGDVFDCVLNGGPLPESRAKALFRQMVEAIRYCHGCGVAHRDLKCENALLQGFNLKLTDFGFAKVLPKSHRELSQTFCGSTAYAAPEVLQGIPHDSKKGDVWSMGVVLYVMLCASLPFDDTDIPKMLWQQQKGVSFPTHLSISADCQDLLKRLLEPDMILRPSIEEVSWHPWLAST
Chain of Cyclin-dependent kinase 2 homolog (Plasmodium falciparum (isolate 3D7)) (P61075 whole entry, canonical isoform): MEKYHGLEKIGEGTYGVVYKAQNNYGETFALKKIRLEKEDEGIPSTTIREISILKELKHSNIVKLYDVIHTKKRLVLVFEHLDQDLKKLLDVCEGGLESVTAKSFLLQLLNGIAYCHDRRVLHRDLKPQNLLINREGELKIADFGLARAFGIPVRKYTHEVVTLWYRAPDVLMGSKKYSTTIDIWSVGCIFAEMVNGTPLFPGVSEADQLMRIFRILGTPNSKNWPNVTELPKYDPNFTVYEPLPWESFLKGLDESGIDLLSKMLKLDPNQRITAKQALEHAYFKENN
Chain of Serine/threonine-protein kinase pim-1 (Homo sapiens) (P11309 whole entry, looked up): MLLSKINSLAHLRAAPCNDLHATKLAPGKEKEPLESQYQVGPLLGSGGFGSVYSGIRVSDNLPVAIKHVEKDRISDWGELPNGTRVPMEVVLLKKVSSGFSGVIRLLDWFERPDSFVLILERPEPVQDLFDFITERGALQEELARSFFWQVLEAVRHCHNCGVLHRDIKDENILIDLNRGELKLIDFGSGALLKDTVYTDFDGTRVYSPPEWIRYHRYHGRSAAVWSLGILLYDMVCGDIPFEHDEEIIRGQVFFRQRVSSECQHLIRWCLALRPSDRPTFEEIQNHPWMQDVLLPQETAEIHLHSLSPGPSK
Chain of Protein kinase C eta type (Homo sapiens) (P24723 whole entry): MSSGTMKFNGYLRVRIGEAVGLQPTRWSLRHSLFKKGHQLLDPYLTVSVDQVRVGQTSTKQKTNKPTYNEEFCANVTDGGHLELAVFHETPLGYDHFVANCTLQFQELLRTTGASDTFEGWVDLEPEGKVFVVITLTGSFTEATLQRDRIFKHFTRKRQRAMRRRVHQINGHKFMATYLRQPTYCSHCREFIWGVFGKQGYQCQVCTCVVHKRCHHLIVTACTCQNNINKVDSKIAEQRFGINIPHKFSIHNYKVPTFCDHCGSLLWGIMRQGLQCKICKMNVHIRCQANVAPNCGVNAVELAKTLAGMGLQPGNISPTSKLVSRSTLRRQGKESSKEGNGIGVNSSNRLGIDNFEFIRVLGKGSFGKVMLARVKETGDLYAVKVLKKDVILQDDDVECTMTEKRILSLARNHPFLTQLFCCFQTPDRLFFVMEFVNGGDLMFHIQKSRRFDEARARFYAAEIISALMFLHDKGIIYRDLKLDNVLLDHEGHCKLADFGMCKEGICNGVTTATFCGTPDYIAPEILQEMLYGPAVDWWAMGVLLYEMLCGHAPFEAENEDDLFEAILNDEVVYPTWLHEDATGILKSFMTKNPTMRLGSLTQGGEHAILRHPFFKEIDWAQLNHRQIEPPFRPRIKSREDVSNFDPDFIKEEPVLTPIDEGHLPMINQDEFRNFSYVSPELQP
Chain of 5-hydroxytryptamine receptor 1D (Homo sapiens) (P28221 whole entry): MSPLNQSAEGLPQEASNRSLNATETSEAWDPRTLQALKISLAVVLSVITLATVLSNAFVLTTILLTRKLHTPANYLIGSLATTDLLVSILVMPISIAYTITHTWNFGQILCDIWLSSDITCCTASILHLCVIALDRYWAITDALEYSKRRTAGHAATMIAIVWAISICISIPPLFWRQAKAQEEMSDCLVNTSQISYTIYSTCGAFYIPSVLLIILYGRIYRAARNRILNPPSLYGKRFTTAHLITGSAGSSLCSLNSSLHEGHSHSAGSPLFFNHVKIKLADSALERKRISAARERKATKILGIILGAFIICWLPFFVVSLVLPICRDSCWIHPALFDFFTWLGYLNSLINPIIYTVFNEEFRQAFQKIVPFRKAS

| SMILES | Ki ([1]; read-out: Ki) [µM] | residual activity [2] [%] | residual activity [3] [%] | residual activity [4] [%] | residual activity [5] [%] | residual activity [6] [%] | residual activity [7] [%] | residual activity [8] [%] | residual activity [9] [%] | residual activity [10] [%] | residual activity [11] [%] | residual activity [12] [%] | residual activity [13] [%] | residual activity [14] [%] | residual activity [15] [%] | residual activity [16] [%] | residual activity [17] [%] | residual activity [18] [%] | residual activity [19] [%] | residual activity [20] [%] | also measured |
| --- | --- | --- | --- | --- | --- | --- | --- | --- | --- | --- | --- | --- | --- | --- | --- | --- | --- | --- | --- | --- | --- |
| NS(=O)(=O)c1cc(NC(=O)C2(c3ccccc3Cl)CC2)ccc1Oc1cccc(Cl)c1 [BAY-207] | 1.94 | 64 | 88 | 100 | 77 | 62 | 75 | 72 | 58 | 79 | 68 | 100 | 83 | 92 | 88 | 94 | 77 | 72 | 29 | 100 | residual activity [21]: 90%; residual activity [22]: 88%; residual activity [23]: 54%; residual activity [24]: 93%; residual activity [25]: 98%; residual activity [26]: 94%; residual activity [27]: 100%; residual activity [28]: 100%; residual activity [29]: 100%; residual activity [30]: 93%; residual activity [31]: 100%; residual activity [32]: 82%; residual activity [33]: 100%; residual activity [34]: 88%; inhibition [35]: 6.75%; inhibition [36]: 17.9%; inhibition [37]: 6.88% |
| NS(=O)(=O)c1cc(NC(=O)Cc2ccccc2)ccc1Oc1cccc(Cl)c1 [BAY-1797] | 4.34 | 78 | 100 | 100 | 95 | 94 | 56 | 83 | 100 | 87 | 94 | 100 | 99 | 100 | 97 | 88 | 100 | 73 | 100 | 98 | Ki ([1]; read-out: pKi (converted)): 4.17 µM; residual activity [21]: 86%; residual activity [22]: 100%; residual activity [23]: 100%; residual activity [24]: 100%; residual activity [25]: 93%; residual activity [26]: 89%; residual activity [27]: 100%; residual activity [28]: 93%; residual activity [29]: 80%; residual activity [30]: 81%; residual activity [31]: 100%; residual activity [32]: 76%; residual activity [33]: 87%; residual activity [34]: 0%; inhibition [35]: 1.74%; inhibition [36]: -0.53%; inhibition [37]: 2.32% |
